Results: US20060116325A1, “Methods and compositions for inhibiting hiv-coreceptor interactions” (priority 2001, published 2006)

Key:
CCR5 = CCR5 (Homo sapiens, UniProt P51681); test: Competition with 125I-MIP-1β binding to HEK-CCR5 cells; design: expressed in transfected cells; host or cells: HEK-293; settings: high concentrations (e.g., 100 μM) of peptide required, FIG. 1
Experimental: Binding assays were performed with HEK-CCR5 or HEK CXCR4 in triplicate by adding unlabeled competitor (anti-coreceptor binding peptide or control chemokine) and radiolabeled chemokine, 0.2 ng/ml (^125I-MIP-1β or SDF-1α, specific activity 2000 Ci/mmol, NEN Life Science Products) to a cell suspension (4×10^5 cells in 200 μl) in RPMI 1640 supplemented with 1% bovine serum albumin and 25 mM HEPES pH 8.0 (binding medium). Cells were then incubated at 22° C. for 40 min with continuous rotation. After incubation cells were transferred to the tubes containing 800 μl of 10% sucrose in PBS and harvested by centrifugation. The supernatant was aspirated and the cell-associated radioactivity was measured using a 1272 Wallac gamma counter. […] After incubation cells were transferred to the tubes containing 800 μl of 10% sucrose in PBS and harvested by centrifugation, the supematant was aspirated and the cell-associated radioactivity was measured using a 1272 Wallac gamma counter. The data were analyzed by nonlinear regression using the computer program GraphPad Prizm 3.0.
Considering that the 15K and 15D peptides were designed in part based on their structural similarity to corresponding chemokine fragments, the binding activity of these peptides for CCR5 and/or CXCR4 receptors, and corresponding anti-coreceptor binding activity against chemokines, was assessed.

CXCR4 = CXCR4 (Homo sapiens, UniProt P61073); test: Binding of anti-CXCR4 antibody 12G5 to CEMx174 cells (flow cytometry); design: host or cells: CEMx174 (174xCEM); settings: for inhibition of 12G5 antibody binding to CXCR4: CEMx174 cells, preincubation 60 min 22° C., FIG. 5
Chain of CXCR4 (P61073 whole entry): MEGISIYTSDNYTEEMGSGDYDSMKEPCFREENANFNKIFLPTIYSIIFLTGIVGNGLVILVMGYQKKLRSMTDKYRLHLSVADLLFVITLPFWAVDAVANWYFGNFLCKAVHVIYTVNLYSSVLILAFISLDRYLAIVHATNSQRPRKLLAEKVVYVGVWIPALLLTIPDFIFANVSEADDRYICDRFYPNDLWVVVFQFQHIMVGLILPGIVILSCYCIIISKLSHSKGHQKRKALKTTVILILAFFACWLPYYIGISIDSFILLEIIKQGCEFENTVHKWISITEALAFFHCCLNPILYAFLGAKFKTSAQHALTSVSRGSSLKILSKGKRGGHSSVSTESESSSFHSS
Experimental: FIG. 5A. Dose dependent effect of peptide 15K in comparison with SDF-1α. FIG. 5B. The comparison of the effects of 15K and 15D. FIG. 5C. The comparison of the effects of 15K and 15KS. Cells were preincubated at 22° C. with peptides at designated concentrations of SDF-1α for 60 min. Then cells were incubated with FITC-labeled anti-human CXCR4 monoclonal antibodies 12G5 for 40 min at 22° C. and washed with FACS buffer prior to flow cytometry.
CEMx174 cells were pelleted and resuspended at 10^6 cells/ml in PBS containing 1% BSA and 0.1% sodium azide (FACS buffer). Cells were then preincubated with designated concentrations of peptides or SDF-1-α (1 μg/ml) at 22° C. for 60 min. FITC-labeled anti-human CXCR4 antibody (clone 12G5, BD PharMingen, San Diego, Calif.) was added to the cells per the manufactures instructions and further incubated at 22° C. for 40 minutes. Cells were extensively washed with FACS buffer and analyzed using a FACS Calibur flowcytometer (Becton Dickinson). HEK/CCR5 cells were suspended in Dulbecco's PBS containing 1% FCS and 0.05% NaN3 (10^4 cells in 100 μl) and incubated with or without 5 μg of MIP-1β (PeproTech, Rocky Hill, N.J.), 0.1 mM peptide 15D or 15K for 45 min at 22° C. Cells were then treated with FITC-conjugated anti-human CCR5 antibody (2D7; BD PharMingen, San Diego, Calif.), and incubated for 30 min at 22° C. Cells were washed twice, and analyzed using a FACScan flow cytometer (Becton Dickinson Immunocytometry Systems, San Jose, Calif.).
To determine if peptides 15D and 15K interact directly with chemokine receptors the effect of these and control peptides on the binding of anti-chemokine receptor antibodies to CXCR4 and CCR5 was studied. The monoclonal antibody 12G5 recognizes a conformational extracellular epitope on CXCR4. This antibody blocks the infectivity of some X4 strains of HIV-1 and HIV-2 (Endres et al., Cell 87:745-756, 1996; Hoxie et al., J. Reprod. Immunol. 41:197-211(1998); McKnight et al., J. Virol. 74:1692-1696(1997), 19, 26). […] Further, the binding of 12G5 to CXCR4 receptor-expressing cells is prevented by anti-HIV compounds. […] 73:2752-2761, 1999. To determine the importance of the particular amino acid sequence of the inhibitory activity of the peptides. The effects of peptide 15K and the corresponding scrambled peptide 15KS on binding of 12G5 to CXCR4 was compared. […] Apparently there is a direct correlation between the ability of 15K to inhibit the anti-CXCR4 antibody binding and its ability to inhibit HIV-1 infectivity since the scrambled peptide 15KS with the same amino acid comparison has reduced ability to manifest both these activities.

Chain of CCR5 (P51681 whole entry): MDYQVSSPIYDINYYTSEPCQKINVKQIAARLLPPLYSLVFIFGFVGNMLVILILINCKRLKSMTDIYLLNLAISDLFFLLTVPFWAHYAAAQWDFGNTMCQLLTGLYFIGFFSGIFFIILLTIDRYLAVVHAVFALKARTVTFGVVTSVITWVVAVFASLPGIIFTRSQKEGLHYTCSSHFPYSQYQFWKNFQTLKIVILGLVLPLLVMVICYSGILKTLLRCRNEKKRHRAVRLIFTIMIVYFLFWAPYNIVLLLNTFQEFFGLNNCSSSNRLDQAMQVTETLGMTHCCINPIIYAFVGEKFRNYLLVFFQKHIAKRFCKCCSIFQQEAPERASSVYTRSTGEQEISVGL

| Substance | inhibition of radiolabeled MIP-1β binding to cells expressing CCR5 (CCR5) | inhibition of 12G5 antibody binding to CXCR4 (CXCR4) | inhibition of 12G5 antibody binding compared with SDF-1α (CXCR4; peptide at 50 μg/ml versus SDF-1α, FIG. 5A) |
| --- | --- | --- | --- |
| I R K A H C N I S R A D W N D [Peptide 15D] | significantly inhibit chemokine binding | less effective |  |
| IRKAHCNISRAKWND [Peptide 15K] | significantly inhibit chemokine binding | inhibited the binding of the 12G5 antibody to CXCR4 in a dose-dependent manner | approached the efficacy of SDF-1α |
